Assays:
Sommerweizen = experiment: Field test of gametocidal activity (sterilisation of anthers), spring wheat; type: in vivo; settings: V. Periode der Organogenese
Description: (§1) Die gametozide Aktivitat der erfindungsgemäßen Sterilisationsmittel war im Feldversuch in verschiedenen bodenklimatischen Zonen mit Teilstücken von 10 m^2 Größe in drei- bis viermaliger Wiederholung festgestellt. Jedes Sterilisationsmittel wurde mindenstens 5 Jahre lang geprüft.
(§2) Die Entwicklung der Perioden der Organogenese wird zytologisch überwacht. Die Behandlung von Pflanzen mit dem Sterilisationsmittel erfolgt am Anfang der fünften Periode der Organogenese nach Kupermann.
(§3) Mit dem Ährenschieben verwirklicht man die Isolierung von Hauptähren und anderen Stockwerken in Pergamentbeuteln. Bei Weizen und Tritikale werden Einzelisolatoren benutzt. Bei Roggen schließt man je Ähre 5 bis 7 verschiedene nebeneinander befindliche Pflanzen unter einen gemeinsamen Isolator ein. Bei Hierse wird jede Rispe getrennt isoliert. Der Sterilitätsprozentsatz (X) für Weizen, Roggen, Tritikale und Hirse wird nach der Formel [formula] ermittelt.
(§4) Die Kornzahl in nicht isolierten Ähren von Kontrollpflanzen wird bedingt für 100 % Ansetzen bei freier Bestäubung angenommen.
(§5) Um zuverlässige Angaben zu erhalten, verwendet man 20 bis 25 Isolatoren jeder Wiederholung für Weizen und Tritikale, 10 .bis 15 Isolatoren jeder Wiederholung für Roggen und Hirse.
Pflanzen des Sommerweizens Sorte Moskowskaja 35 werden in der V. Periode der Organogenese (nach Kupermann) mit 1%iger wäßriger Emulsion von δ, δ' -Thiodivaleriansäure, Natriumsalz der δ, δ' -Thiodivaleriansäure, δ, δ'--Sulfonyldivaleriansäure, Natriumsalz der d, δ' -Sulfonyldivaleriansäure, Kaliumsalz der δ, δ' -Sulfornyldivaleriansäure, Bis (die-n-butyläther) der δ, δ' -Thiodivaleriansäure, 4-Karboxybutyldezylsulfid, Bis(2-äthylhexyläther) der δ, δ' -Thiodivaleriansäure behandelt. Die Emulsion enthält 0,1 Masse% Kalziumalkylbenzolsulfonat mit 12 bis 14 Kohlenstoffatomen und 0,01 Masse% Dimethylsulfoxid. Der Verbrauch an Präparat beträgt 6 kg/ha. Als Kontrolle dienen Pflanzen, behandelt mit einem Verdünner ohne Sterilisationsmittel. Die Prüfergebnisse sind in der Tabelle 4 angegeben. […] Periode der Organogenese erhalten.
(§6) Pflanzen des Sommerweizens Sorte Rodina werden in der V. Periode der Organogenese (nach Kupermann) mit l%iger wäßriger Emulsion von δ, δ' -Sulfornyldivaleriansäure, 4-Karboxybutyldezylsulfid, Bis(2-äthylhexyläther) der δ, δ' -Thiodivaleriansäure behandelt. Die Emulsion enthält 0,1 Masse% Kalziumalkylbenzolsulfonat mit 12 bis 14 Kohlenstoffatomen und 0,01 Masse% Tetrahydrofuran. Der Verbrauch an Präparat beträgt 6 kg/ha. Als Kontrolle dienen Pflanzen, behandelt mit einem Verdünner ohne Sterilisationsmittel. Die Prüfergebnisse sind in der Tabelle 5 angegeben. […] Periode der Organogenese erhalten.
Pflanzen des Sommerwizens Sorte Charkowskaja 9 werden in der V. Periode der Organogenese (nach Kupermann.) mit 1%iger waßriger Emulsion von Bis(di-n-butyläther) der δ, δ' -Thiodivaleriansäure, Bis(2-äthylhexyläther) der δ, δ' -Thiodivaleriansäure behandelt. Die Emulsion enthält 0,1 Masse% Kalziumalkylbenzolsulfonat mit 12 bis 14 Kohlenstoffatomen und 0,01 Masse% Äthylenglykol. Der Verbrauch an Präparat beträgt 8 kg/ha. Als Kontrolle dienen Pflanzen, behandelt mit einem Verdünner ohne Sterilisationsmittel. Die Prüfergebnisse sind in der Tabelle 6 angegeben. […] Periode der Organogenese erhalten.
as §6, with “Botanitscheskaja 4” for “Rodina”, “1%iger” for “l%iger”, “von Natriumsatz der” for “von”, “--Thiodivaleriansäure, Bis(di-n-butyläther) der δ, δ' -Thiodiväleriansäure,” for “-Sulfornyldivaleriansäure,”, “Dodezylsulfat.” for “Tetrahydrofuran.”, “7” for “5”

Winterweizen = experiment: Field test of gametocidal activity (sterilisation of anthers), winter wheat; type: in vivo; settings: V. Periode der Organogenese, 2%ige wäßrige Emulsion
Description: as §1, §2, §3, §4, §5
Pflanzen des Winterweizens Sorte Mironowskaja 808 werden in der V. Periode der Organogenese durch Zerstäubung der 2%igen wäßrigen Emulsion der δ, δ' -Thiodivaleriansäure mit Hilfe einer Rückenspritze behandelt. Als Emulgiermittel wird 0,1 Masse% Kalziumalkylbenzalsulfonat mit 12 bis 14 Kohlenstoffatomen hinzugefügt. Als Adjuvans führt man in die Emulsion 0,01 Masse% Dimethylsulfoxid ein. Der Verbrauch an Präparat beträgt 20 kg/ha. Als Kontrolle dienen Pflanzen, behandelt mit einem Verdünner ohne Sterilisationsmittel. Die Ergebnisse sind in der Tabelle 1 angegeben. […] Periode der Organogenese erhalten.
Der Prozeß erfolgt analog zu dem im Beispiel 1 bescnriebenen. Als Sterilisationsmittel benutzt man 2%ige wäßrige Emulsion von Natriumsalz der δ, δ'-Thiodivaleriansäure, δ, δ' -Sulfonyldivaleriansäure, Natriumsalz der δ, δ' -Sulfonyldivaleriansäure, Kaliumsalz der δ, δ'--Sulfonyldivaleriansäure, Bis(di-n-butyläther) der δ, δ'--Thiodivaleriansäure, 4-Karboxybutyldezylsulfid bzw.
Pflanzen des Winterweizens Sorte Korall werden in der V. Periode der Organogenese (nach Kupermann) mit 2%iger wäßriger Emulsion von Bis(2-äthylhexyläther) der δ, δ' --Thiodivaleriansäure, 4-Karboxybutyldezylsulfid bzw. Bis(di--n-butyläther) der δ, δ' -Thiodivalerianqäure behandelt. Die Emulsion enthält 0,1 Masse% Kalziumalkylbenzolsulfonat mit 12 bis 14 Kohlenstoffatomen und 0,01 Masse% Dodezylsulfat. Der Verbrauch an Präparat beträgt 12 kg/ha. Als Kontrolle dienen Pflanzen, behandelt mit einem Verdünner ohne Sterilisationsmittel. Die Prüfergebnisse sind in der Tabelle 2 angegeben.
Pflanzen des Winterweizens Gordeiforme 12303 werden in der V. Periode der Organogenese (nach Kupermann) mit 2%iger wäßriger Emulsion von 4-Karboxybutyldezylsulfid, Bis(2-äthylhexyläther) der δ, δ' -Thiodivaleriansäure, δ, δ' -Sulfonyldivaleriansäure behandelt. Die Emulsion enthält als Emulgiermittel 0,1 Masse% Kalziumalkylbenzolsulfonat mit 12 bis 14 Kohlenstoffatomen und 0,01 Masse% Dimethylformamid. Der Verbrauch an Präparat beträgt 16 kg/ha. Als Kontrolle dienen Pflanzen, behandelt mit einem Verdünner ohne Sterilisationsmittel.

[1] = Sorte Rodina, 1%ige wäßrige Emulsion, 6 kg/ha
[2] = Sorte Mironowskaja 808, 20 kg/ha
[3] = Sorte Charkowskaja 9, 1%ige Emulsion, 8 kg/ha
[4] = Sorte Botanitscheskaja 4, 1%ige wäßrige Emulsion, 6 kg/ha
[5] = Sorte Moskowskaja 35, 1%ige wäßrige Emulsion, 6 kg/ha

Compound: O=C(O)CCCCS(=O)(=O)CCCCC(=O)O [Beispiel 23, δ, δ' -Sulfornyldivaleriansäure]
- Anzahl von Körnern der Ähre bei freier Bestäubung (Sommerweizen; [1]): 36,1
- Anzahl von Körnern der Ähre im Isolator (Sommerweizen; [1]): 0,0
- Prozentsatz der Sterilität (Sommerweizen; [1]): 100,0%
- Prozentsatz des Ansetzens von Körnern bei freier Bestaubung (Sommerweizen; [1]): 96,3%

Compound: CCCCCCCCCCSCCCCC(=O)O [Beispiel 10, 4-Karboxybutyldezylsulfid]
- Anzahl von Körnern der Ähre bei freier Bestäubung (Winterweizen; Sorte Korall, 12 kg/ha): 29,1
- Anzahl von Körnern der Ähre im Isolator (Winterweizen; Sorte Korall, 12 kg/ha): 0,1
- Prozentsatz der Sterilität (Winterweizen; Sorte Korall, 12 kg/ha): 99,5%
- Prozentsatz des Ansetzens von Körnern bei freier Bestäubung (Winterweizen; Sorte Korall, 12 kg/ha): 89,8%

Compound: O=C([O-])CCCCS(=O)(=O)CCCCC(=O)[O-].[K+].[K+] [Beispiel 5, Kaliumsalz der δ, δ'--Sulfonyldivaleriansäure]
- Anzahl von Körnern der Ähre bei freier Bestäubung (Winterweizen; [2]): 40,7
- Anzahl von Körnern der Ähre im Isolator (Winterweizen; [2]): 0,1
- Prozentsatz der Sterilität (Winterweizen; [2]): 99,8%
- Prozentsatz des Ansetzens von Körnern bei freier Bestäubung (Winterweizen; [2]): 98,8%

Compound: Bis(di-n-butyläther) der δ, δ' -Thiodivaleriansäure [Beispiel 26]
- Anzahl von Körnern der Ähre bei freier Bestäubung (Sommerweizen; [3]): 28,7
- Anzahl von Körnern der Ähre im Isolator (Sommerweizen; [3]): 0,0
- Prozentsatz der Sterilität (Sommerweizen; [3]): 100,0%
- Prozentsatz des Ansetzens von Körnern bei freier Bestäubung (Sommerweizen; [3]): 89,1%

Compound: Bis(di-n-butyläther) der δ, δ' -Thiodiväleriansäure [Beispiel 29]
- Anzahl von Körnern der Ähre bei freier Bestäubung (Sommerweizen; [4]): 30,6
- Anzahl von Körnern der Ähre im Isolator (Sommerweizen; [4]): 0,0
- Prozentsatz der Sterilität (Sommerweizen; [4]): 100,0%
- Prozentsatz des Ansetzens von Körnern bei freier Bestäubung (Sommerweizen; [4]): 76,2%

Compound: CCCCCCCCCCSCCCCC(=O)O [Beispiel 24, 4-Karboxybutyldezylsulfid]
- Anzahl von Körnern der Ähre bei freier Bestäubung (Sommerweizen; [1]): 29,8
- Anzahl von Körnern der Ähre im Isolator (Sommerweizen; [1]): 0,0
- Prozentsatz der Sterilität (Sommerweizen; [1]): 100,0%
- Prozentsatz des Ansetzens von Körnern bei freier Bestaubung (Sommerweizen; [1]): 79,5%

Compound: CCCCC(CC)COC(=O)CCCCSCCCCC(=O)OCC(CC)CCCC (stereo not shown) [Beispiel 22, Bis(2-äthylhexyläther) der δ, δ' -Thiodivaleriansäure]
- Anzahl von Körnern der Ähre bei freier Bestäubung (Sommerweizen; [5]): 25,7
- Anzahl von Körnern der Ähre im Isolator (Sommerweizen; [5]): 0,0
- Prozentsatz der Sterilität (Sommerweizen; [5]): 100,0%
- Prozentsatz des Ansetzens von Körnern bei freier Bestäubung (Sommerweizen; [5]): 80,6%

Compound: CCCCC(CC)COC(=O)CCCCSCCCCC(=O)OCC(CC)CCCC (stereo not shown) [Beispiel 25, Bis(2-äthylhexyläther) der δ, δ' -Thiodivaleriansäure]
- Anzahl von Körnern der Ähre bei freier Bestäubung (Sommerweizen; [1]): 31,2
- Anzahl von Körnern der Ähre im Isolator (Sommerweizen; [1]): 0,0
- Prozentsatz der Sterilität (Sommerweizen; [1]): 100,0%
- Prozentsatz des Ansetzens von Körnern bei freier Bestaubung (Sommerweizen; [1]): 83,2%

Compound: CCCCC(CC)COC(=O)CCCCSCCCCC(=O)OCC(CC)CCCC (stereo not shown) [Beispiel 31, Bis(2-äthylhexyläther) der δ, δ' -Thiodivaleriansäure]
- Anzahl von Körnern der Ähre bei freier Bestäubung (Sommerweizen; [4]): 33,4
- Anzahl von Körnern der Ähre im Isolator (Sommerweizen; [4]): 0,0
- Prozentsatz der Sterilität (Sommerweizen; [4]): 100,0%
- Prozentsatz des Ansetzens von Körnern bei freier Bestäubung (Sommerweizen; [4]): 83,1%

Compound: O=C([O-])CCCCSCCCCC(=O)[O-].[Na+].[Na+] [Beispiel 28, Natriumsatz der δ, δ' --Thiodivaleriansäure]
- Anzahl von Körnern der Ähre bei freier Bestäubung (Sommerweizen; [4]): 36,2
- Anzahl von Körnern der Ähre im Isolator (Sommerweizen; [4]): 0,3
- Prozentsatz der Sterilität (Sommerweizen; [4]): 99,2%
- Prozentsatz des Ansetzens von Körnern bei freier Bestäubung (Sommerweizen; [4]): 90,0%

Compound: O=C([O-])CCCCS(=O)(=O)CCCCC(=O)[O-].[K+].[K+] [Beispiel 19, Kaliumsalz der δ, δ' -Sulfornyldivaleriansäure]
- Anzahl von Körnern der Ähre bei freier Bestäubung (Sommerweizen; [5]): 30,5
- Anzahl von Körnern der Ähre im Isolator (Sommerweizen; [5]): 0,3
- Prozentsatz der Sterilität (Sommerweizen; [5]): 99,0%
- Prozentsatz des Ansetzens von Körnern bei freier Bestäubung (Sommerweizen; [5]): 95,6%

Compound: O=C(O)CCCCS(=O)(=O)CCCCC(=O)O [Beispiel 17, δ, δ'--Sulfonyldivaleriansäure]
- Anzahl von Körnern der Ähre bei freier Bestäubung (Sommerweizen; [5]): 26,7
- Anzahl von Körnern der Ähre im Isolator (Sommerweizen; [5]): 0,0
- Prozentsatz der Sterilität (Sommerweizen; [5]): 100,0%
- Prozentsatz des Ansetzens von Körnern bei freier Bestäubung (Sommerweizen; [5]): 83,6%

Compound: CCCCC(CC)COC(=O)CCCCSCCCCC(=O)OCC(CC)CCCC (stereo not shown) [Beispiel 27, Bis(2-äthylhexyläther) der δ, δ' -Thiodivaleriansäure]
- Anzahl von Körnern der Ähre bei freier Bestäubung (Sommerweizen; [3]): 28,6
- Anzahl von Körnern der Ähre im Isolator (Sommerweizen; [3]): 0,0
- Prozentsatz der Sterilität (Sommerweizen; [3]): 100,0%
- Prozentsatz des Ansetzens von Körnern bei freier Bestäubung (Sommerweizen; [3]): 88,9%

Compound: O=C(O)CCCCSCCCCC(=O)O [Beispiel 15, δ, δ' -Thiodivaleriansäure]
- Anzahl von Körnern der Ähre bei freier Bestäubung (Sommerweizen; [5]): 31,7
- Anzahl von Körnern der Ähre im Isolator (Sommerweizen; [5]): 0,9
- Prozentsatz der Sterilität (Sommerweizen; [5]): 97,0%
- Prozentsatz des Ansetzens von Körnern bei freier Bestäubung (Sommerweizen; [5]): 98,3%

Compound: O=C([O-])CCCCSCCCCC(=O)[O-].[Na+].[Na+] [Beispiel 16, Natriumsalz der δ, δ' -Thiodivaleriansäure]
- Anzahl von Körnern der Ähre bei freier Bestäubung (Sommerweizen; [5]): 30,8
- Anzahl von Körnern der Ähre im Isolator (Sommerweizen; [5]): 0,9
- Prozentsatz der Sterilität (Sommerweizen; [5]): 97,0%
- Prozentsatz des Ansetzens von Körnern bei freier Bestäubung (Sommerweizen; [5]): 96,5%

Compound: Bis (die-n-butyläther) der δ, δ' -Thiodivaleriansäure [Beispiel 20]
- Anzahl von Körnern der Ähre bei freier Bestäubung (Sommerweizen; [5]): 28,7
- Anzahl von Körnern der Ähre im Isolator (Sommerweizen; [5]): 0,0
- Prozentsatz der Sterilität (Sommerweizen; [5]): 100,0%
- Prozentsatz des Ansetzens von Körnern bei freier Bestäubung (Sommerweizen; [5]): 89,9%

Compound: O=C([O-])CCCCS(=O)(=O)CCCCC(=O)[O-].[Na+].[Na+] [Beispiel 18, Natriumsalz der d, δ' -Sulfonyldivaleriansäure]
- Anzahl von Körnern der Ähre bei freier Bestäubung (Sommerweizen; [5]): 31,1
- Anzahl von Körnern der Ähre im Isolator (Sommerweizen; [5]): 0,3
- Prozentsatz der Sterilität (Sommerweizen; [5]): 99,0%
- Prozentsatz des Ansetzens von Körnern bei freier Bestäubung (Sommerweizen; [5]): 97,4%

Compound: CCCCCCCCCCSCCCCC(=O)O [Beispiel 21, 4-Karboxybutyldezylsulfid]
- Anzahl von Körnern der Ähre bei freier Bestäubung (Sommerweizen; [5]): 26,9
- Anzahl von Körnern der Ähre im Isolator (Sommerweizen; [5]): 0,0
- Prozentsatz der Sterilität (Sommerweizen; [5]): 100,0%
- Prozentsatz des Ansetzens von Körnern bei freier Bestäubung (Sommerweizen; [5]): 84,3%

Compound: CCCCCCCCCCSCCCCC(=O)O [Beispiel 30, 4-Karboxybutyldezylsulfid]
- Anzahl von Körnern der Ähre bei freier Bestäubung (Sommerweizen; [4]): 32,8
- Anzahl von Körnern der Ähre im Isolator (Sommerweizen; [4]): 0,0
- Prozentsatz der Sterilität (Sommerweizen; [4]): 100,0%
- Prozentsatz des Ansetzens von Körnern bei freier Bestäubung (Sommerweizen; [4]): 81,6%

From patent EP0362382A1, “METHOD OF STERILIZING PLANT POLLEN” (VSESOJUZNY NAUCHNO-ISSLEDOVATELSKY INST. SELSKOKHOZYAISTV. …, priority 1988, dated 1989)
